The values that follow come from publication PMC4608362, “The therapeutic effect of chlorogenic acid against Staphylococcus aureus infection through sortase A inhibition” (Frontiers in Microbiology, 2015).

What all share (conditions): read-out: Binding constants KA (1 × 10^5) L⋅mol^-1 (converted)
Assay [1] addresses T1, Sortase A (SrtA) (Staphylococcus aureus, UniProt Q2FV99, G192A).
T1 construct: SrtAΔN59 (residues 60–206)
Description: fluorescence spectroscopy quenching with purified mutant, binding constant KA, n = […].

The target in assay [2] is T2, Sortase A (SrtA) (Staphylococcus aureus, UniProt Q2FV99).
T2 construct: SrtAΔN59 (residues 60–206)
Description: fluorescence spectroscopy quenching, binding constant KA, n = […]; also FRET inhibition of purified SrtAΔN59 (IC50 […]).

The target of assay [3] is T3, Sortase A (SrtA) (Staphylococcus aureus, UniProt Q2FV99, C184A).
T3 construct: SrtAΔN59 (residues 60–206)
Description: fluorescence spectroscopy quenching with purified mutant, binding constant KA, n = […].

As for `O=C(/C=C/c1ccc(O)c(O)c1)O[C@@H]1C[C@](O)(C(=O)O)C[C@@H](O)[C@H]1O` [CHA, chlorogenic acid], the Kd on Sortase A (SrtA) [1] was 2000 nM; at Sortase A (SrtA) [2], 1120 nM; on Sortase A (SrtA) [3], 2130 nM.
